Measurements as given in ChEMBL document CHEMBL5576083, “Structure-Based Design and Synthesis of Covalent Inhibitors for Deubiquitinase and Acetyltransferase ChlaDUB1 of Chlamydia trachomatis” (J Med Chem, 2024).
In brackets after ≈: the same amount, converted by molar mass. Activity calls are given as the source filed them. The rule behind the calls is not given here.

Key:
Chlamydia trachomatis [1] = test: Antimicrobial activity against Chlamydia trachomatis serovar L2 infected in human HeLa cells assessed as inclusion forming unit at 1.56 to 6.25 ug/ml measured after 24 hrs of post-infection by immunofluorescence based microscopic analysis; assay type: functional; settings: dose 1.56-6.25 µg/ml
Chlamydia trachomatis [2] = test: Antimicrobial activity against Chlamydia trachomatis serovar L2 infected in human HeLa cells assessed as reduction in inclusion forming unit at 12.5 ug/ml measured after 8 hrs of post-infection by immunofluorescence based microscopic analysis; assay type: functional, organism-based; settings: dose 12.5 µg/ml
[3] = molecular target: T1, OTU domain-containing protein 3 (Homo sapiens) (UniProt Q5T2D3); test: Inhibition of GST-tagged human OTUD3 using Ub-Rh110Gly as fluorogenic substrate at 40 uM preincubated for 1 hr followed by substrate addition by plate reader analysis
T1 sequence (whole entry): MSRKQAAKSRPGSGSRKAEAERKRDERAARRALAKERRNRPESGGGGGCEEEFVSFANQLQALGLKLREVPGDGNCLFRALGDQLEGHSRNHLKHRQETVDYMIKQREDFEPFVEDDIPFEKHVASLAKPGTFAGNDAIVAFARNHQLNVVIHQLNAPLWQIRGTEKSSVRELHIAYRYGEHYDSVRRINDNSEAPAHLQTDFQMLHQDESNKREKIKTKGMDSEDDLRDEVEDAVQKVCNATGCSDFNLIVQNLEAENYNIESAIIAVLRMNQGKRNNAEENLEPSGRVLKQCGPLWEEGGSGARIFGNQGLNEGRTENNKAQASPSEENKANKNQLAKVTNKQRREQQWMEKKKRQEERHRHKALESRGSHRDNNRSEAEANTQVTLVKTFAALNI

HEp-2 = test: Cytotoxicity against human HEp-2 cells at 4 to 128 ug/ml incubated for 20 hrs by […] assay; assay type: toxicity, cell-based; settings: hep-2, 20 h, dose 4-128 µg/ml
Chlamydia trachomatis [4] = test: Antimicrobial activity against Chlamydia trachomatis serovar L2 infected in human HeLa cells assessed as reduction in microbial progeny at 1.56 ug/ml measured after 24 hrs of post-infection by immunofluorescence analysis; assay type: functional; settings: dose 1.56 µg/ml
Chlamydia trachomatis [5] = test: Antimicrobial activity against Chlamydia trachomatis serovar L2 infected in human HeLa cells assessed as reduction in inclusion circumference at 12.5 ug/ml measured after 24 hrs of post-infection by microscopic analysis (reference value: 31.72 micrometer); assay type: functional; settings: dose 12.5 µg/ml
[6] = molecular target: T2, Ubiquitin carboxyl-terminal hydrolase isozyme L3 (Homo sapiens) (UniProt P15374); test: Inhibition of GST-tagged human UCHL3 using Ub-Rh110Gly as fluorogenic substrate at 40 uM preincubated for 1 hr followed by substrate addition by plate reader analysis
T2 sequence (whole entry): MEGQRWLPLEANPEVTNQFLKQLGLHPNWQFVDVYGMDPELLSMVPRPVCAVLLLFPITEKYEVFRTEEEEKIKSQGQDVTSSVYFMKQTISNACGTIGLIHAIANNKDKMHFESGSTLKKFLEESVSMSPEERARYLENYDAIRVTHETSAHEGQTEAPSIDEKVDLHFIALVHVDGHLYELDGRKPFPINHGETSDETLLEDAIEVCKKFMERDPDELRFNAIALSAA

Chlamydia trachomatis [7] = test: Antimicrobial activity against Chlamydia trachomatis serovar L2 infected in human HeLa cells assessed as inclusion forming unit at 12.5 ug/ml measured at 24 to 48 hrs of post-infection by immunofluorescence based microscopic analysis; assay type: functional; settings: dose 12.5 µg/ml; time 24-48 hrs
[8] = Inhibition of Chlamydia trachomatis DUB2 expressed in Escherichia coli Rosetta 2 (DE3) cells using Ub-Rh110Gly as fluorogenic substrate preincubated for 1 hr followed by substrate addition by plate reader analysis
Chlamydia trachomatis [9] = test: Antimicrobial activity against Chlamydia trachomatis serovar L2 infected in human HEp-2 cells assessed as fold change in inclusion forming unit at 1.56 to 12.5 ug/ml measured at 8 to 48 hrs of post-infection by immunofluorescence based microscopic analysis; assay type: functional; settings: dose 1.56-12.5 µg/ml; time 8-48 hrs
[10] = Solubility of compound in PBS incubated overnight by shake-flask based HPLC analysis; assay type: physicochemical
[11] = molecular target: T3, Ubiquitin thioesterase OTU1 (Homo sapiens) (UniProt Q5VVQ6); test: Inhibition of GST-tagged human OTUD2 using Ub-AMC as substrate at 40 uM preincubated for 1 hr followed by substrate addition by plate reader analysis
T3 sequence (whole entry): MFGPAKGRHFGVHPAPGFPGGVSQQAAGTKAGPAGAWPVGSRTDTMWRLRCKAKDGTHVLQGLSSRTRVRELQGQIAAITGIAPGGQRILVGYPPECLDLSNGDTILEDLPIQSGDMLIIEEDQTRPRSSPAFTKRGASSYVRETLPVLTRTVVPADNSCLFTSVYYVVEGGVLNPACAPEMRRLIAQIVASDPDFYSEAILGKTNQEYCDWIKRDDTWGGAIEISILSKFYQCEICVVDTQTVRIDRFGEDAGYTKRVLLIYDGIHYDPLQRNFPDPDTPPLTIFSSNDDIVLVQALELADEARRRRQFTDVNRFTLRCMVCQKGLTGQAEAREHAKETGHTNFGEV

Chlamydia trachomatis [12] = test: Antimicrobial activity against Chlamydia trachomatis serovar L2 infected in human HeLa cells assessed as reduction in inclusion circumference at 3.13 ug/ml measured after 24 hrs of post-infection by microscopic analysis (reference value: 31.72 micrometer); assay type: functional; settings: dose 3.13 µg/ml
Chlamydia trachomatis [13] = test: Antimicrobial activity against Chlamydia trachomatis serovar L2 infected in human HeLa cells assessed as reduction in inclusion area at 12.5 ug/ml measured after 24 hrs of post-infection by microscopic analysis; assay type: functional; settings: dose 12.5 µg/ml
Chlamydia trachomatis [14] = test: Antimicrobial activity against Chlamydia trachomatis serovar L2 infected in human HeLa cells assessed as reduction in inclusion circumference at 6.25 ug/ml measured after 24 hrs of post-infection by microscopic analysis (reference value: 31.72 micrometer); assay type: functional; settings: dose 6.25 µg/ml
[15] = Binding affinity to C-terminal 6His-tagged Chlamydia trachomatis DUB1 (130 to 401 residues) expressed in Escherichia coli Rosetta 2 (DE3) cells using Ub-Rh110Gly as fluorogenic substrate assessed as inhibition constant preincubated for 60 mins followed by substrate addition measured after 360 mins by plate reader analysis
Chlamydia trachomatis [16] = test: Antimicrobial activity against Chlamydia trachomatis serovar L2 infected in human HeLa cells assessed as reduction in microbial progeny at 3.13 ug/ml measured after 24 hrs of post-infection by immunofluorescence analysis; assay type: functional; parameters: scale not given: the % may be the effect or the level left; settings: dose 3.13 µg/ml
Chlamydia trachomatis [17] = test: Antimicrobial activity against Chlamydia trachomatis serovar L2 infected in human HeLa cells assessed as reduction in microbial progeny at 6.25 ug/ml measured after 24 hrs of post-infection by immunofluorescence analysis; assay type: functional; parameters: scale not given: the % may be the effect or the level left; settings: dose 6.25 µg/ml
Chlamydia trachomatis [18] = test: Anti-chlamydial activity against Chlamydia trachomatis serovar L2 infected in human HEp-2 cells assessed as fold change in inhibition of chlamydial inclusion incubated for 24 hrs by Alexa488/DAPI staining based immunofluorescence assay relative to doxycycline; assay type: functional
Chlamydia trachomatis [19] = test: Anti-chlamydial activity against Chlamydia trachomatis serovar L2 infected in human HEp-2 cells assessed as inhibition of chlamydial inclusion incubated for 24 hrs by Alexa488/DAPI staining based immunofluorescence assay; assay type: functional, organism-based; settings: serovar L2, HEp-2, 24 h
Chlamydia trachomatis [20] = test: Antimicrobial activity against Chlamydia trachomatis serovar L2 infected in human HeLa cells assessed as reduction in microbial progeny at 6.25 ug/ml measured after 48 hrs of post-infection by immunofluorescence analysis; assay type: functional; parameters: scale not given: the % may be the effect or the level left; settings: dose 6.25 µg/ml

inhibition [3]: inactive
inhibition [6]: inactive
IC50 [8]: 15.7 µM
solubility thermodynamic [10]: 308 µM (≈ 128 µg/mL)
inhibition [11]: inactive
IC50 (Chlamydia trachomatis [19]): 8.52 µg/mL (≈ 20.5 µM)
Compound: N#Cc1ncc(C(=O)NCc2ccc(C(=O)NC34CC5CC(CC(C5)C3)C4)cc2)cn1
Activity (Chlamydia trachomatis [1]): 1.075 10^7IFU/ml
Activity (Chlamydia trachomatis [2]): Active
Activity (HEp-2): Toxic
Activity (Chlamydia trachomatis [4]): inactive
Activity (Chlamydia trachomatis [5]): 14.75 um
Activity (Chlamydia trachomatis [7]): 3.7 10^6IFU/ml
fold change (FC) (Chlamydia trachomatis [9]): 2
Activity (Chlamydia trachomatis [12]): 27.26 um
Activity (Chlamydia trachomatis [13]): 15.38 um2
Activity (Chlamydia trachomatis [14]): 25.98 um
Ki [15]: 120 µM
Activity (Chlamydia trachomatis [16]): 45.5%
Activity (Chlamydia trachomatis [17]): 66.5%
fold change (FC) (Chlamydia trachomatis [18]): 200
Activity (Chlamydia trachomatis [20]): 41%
